Measurements published in US20100123097A1, “Method for Making Carbonates and Esters” (SABIC […] IP BV, priority 2008, published 2010).

Details: after >20 h storage time in the solvents of the table
Protocol: Suitable reaction temperatures will typically be high enough to keep the solution or melt in the liquid form and not high enough to cause loss of the species 1, 2, 3, or 5 in FIGS. 1 and 2. The reaction temperature is less than 180° C., 160° C., 140° C. […] Higher reaction temperatures may be appropriate when more sterically hindered alcohols are used as reactants if longer reaction times are not acceptable.

Compound: COC(=O)c1ccccc1OC(=O)Oc1ccccc1C(=O)OC [BMSC, bismethyl salicyl carbonate]
- Stability in these solvents (MS formation): no detectable MS formation
